From patent publication US8691210B2, “Methods and compositions for generating an immune response by inducing CD40 and pattern recognition receptors and adaptors thereof” (priority 2006, dated 2014)

Columns and labels:
human DCs = test: Cytokine (IL-12p70, IL-6) ELISA of human DC culture supernatants; type: cell-based; conditions: iCD40-DCs stimulated with the named TLR ligand
Procedure: Approximately 2×10^6 cells/ml were cultured in a 24-well dish and transduced with adenoviruses at 10,000 viral particle (vp)/cell (−160 MOI) for 90 min at 37° C. and 5% CO2. Immediately after transduction DCs were stimulated with MPL, FSL-1, Pam3CSK4 (InvivoGen, San Diego, Calif.), LPS (Sigma-Aldrich, St. Louis, Mo.), AP20187 (kind gift from ARIAD Pharmaceuticals, Cambridge, Mass.) or maturation cocktail (MC), containing 10 ng/ml TNF-alpha, 10 ng/ml IL-1beta, 150 ng/ml IL-6 (R&D Systems, Minneapolis, Minn.) and 1 micrograms/ml of PGE2 (Cayman Chemicals, Ann Arbor, Mich.). In T cell assays DCs were pulsed with 50 micrograms/ml of PSMA or MAGE 3 peptide 24 hours before and after adenoviral transduction.
Cell surface staining was done with fluorochrome-conjugated monoclonal antibodies (BD Biosciences, San Diego, Calif.). Cells were analyzed on a FACSCalibur cytometer (BD Biosciences, San Jose, Calif.). Cytokines were measured in culture supernatants using enzyme-linked immunosorbent assay kits for human IL-6 and IL-12p70 (BD Biosciences).

[1] = test system: primary bone marrow-derived DCs (BMDCs); test: iCD40 functionality in primary BMDCs (surface markers, intracellular IL-12 staining); type: cell-based, murine; conditions: stimulation with LPS and CD40L
Text: A helper-dependent, […] adenoviral vector, named Ad-iCD40-GFP, was engineered to express both iCD40 and EGFP under the control of the CMV early/immediate promoter/enhancer. Ad-iCD40-GFP successfully transduced and expressed the iCD40 transgene, as well as the EGFP marker, in purified BMDCs (FIG. 11A,B). […] The effects of Ad-iCD40-GFP on BMDCs using intracellular cytokine staining to evaluate DC expression of the TH1-polarizing cytokine, IL-12 was then investigated. These findings confirmed numerous previous reports that an empty adenoviral vector can contribute to background fluorescence readings by stimulating the production of low levels of this cytokine. (FIG. 11D)^53. […] However, AP20187 exposure of these iCD40-expressing DCs managed to reproducibly overcome these cumulative effects to further increase the percentage of IL-12′ DCs.

human SOCS1 = test: Real time Q-PCR assay for human SOCS1 in DCs; type: cell-based
Text: Total RNA was purified and reverse transcribed with random hexamers using SuperScript II RTase (Invitrogen, Carlsbad, Calif.). mRNA levels were quantified in DCs by subjecting cDNA to TaqMan PCR analysis using the GeneAmp 5700 Sequence Detection System (Applied Biosystems, Foster City, Calif.). Pre-developed sequence detection reagents (Applied Biosystems) specific for human SOCS1 and 18S rRNA, including forward and reverse primers as well as a fluorogenic TaqMan FAM-labeled hybridization probe, were supplied as mixtures and were used at 1 microliter/20 microliter PCR. Samples were run in duplicates. The level of SOCS1 expression in each sample was normalized to the level of 18S rRNA from the same sample using the comparative 2-ΔΔCT method^21.

BMDCs [2] = test: BMDC survival (GM-CSF deprivation, wortmannin); type: cell-based
Procedure: To further test the hypothesis that PI3K and Akt are common regulators for innate and acquired immune signal-mediated DC survival, various concentrations (0.05-5 μM) of PI3K inhibitor, wortmannin, in BMDCs treated with LPS or anti-CD40 were tested.
To more directly investigate the role of Akt in PI3K-mediated DC survival, a previously described constitutively active Akt (M-Akt) allele, consisting of full length Akt, targeted to intracellular membranes with a myristoylation-targeting sequence from c-Src^62 was used. […] Therefore, to test the possibility that the efficient lipid raft localization of Akt improve its functions, this construct was compared with several distinct deregulated Akt alleles, containing myristoylation-targeting sequences from Src family kinases Src, Fyn and Lck fused to AAkt. The pleckstrin homology (PH) domain (residues 1-102) was removed to further improve Akt activity when PI3K is limiting^64. […] Therefore, MF-ΔAkt was used in subsequent experiments. Moreover, for improved expression in BMDCs, replication-defective adenovirus, Ad-MF-ΔAkt, expressing functionally optimized Akt was generated. Consistently, Ad-MF-ΔAkt led to higher GSK3α/β phosphorylation in BMDCs, compared with Ad-M-Akt^62. […] Thus, functionally optimized Akt almost completely suppresses induction of DC death by PI3K (but not Src) inhibition. […]

BMDCs [3] = test: In vitro serum-starvation DC survival assay (propidium iodide); type: cell-based, murine; conditions: relative to non-transduced DCs treated with CD40L or untreated BMDCs
Text: In addition to DC activation state, DC longevity is another critical variable that influences the generation of T cell-dependent immunity. In fact, CTL-mediated killing of DCs is considered to be a significant mechanism for modulating immune responses while protecting the host from autoimmune pathologies^55,56. Other work has established that CD40 stimulation of DCs prolongs their survival by a variety of mechanisms, including upregulation of the anti-apoptotic protein bcl-XL and the granzyme B inhibitor, Spi-6^57,58. The effects of iCD40 relative to CD40L on DC survival were compared in an in vitro serum-starvation culture assay (FIG. 11E).

[4] = test system: Naive CD4+CD45RA+ T cells; test: Polarization of naive T helper cells; type: cell-based, human; conditions: tetanus toxoid-pulsed DCs, restimulation with TTp30
Text: Naïve CD4+CD45RA+ T-cells from HLA-DR11.5-positive donors (genotyped using FASTYPE HLA-DNA SSP typing kit; BioSynthesis, Lewisville, Tex.) were isolated by negative selection using naïve CD4+ T cell isolation kit (Miltenyi Biotec, Auburn, Calif.). T cells were stimulated with autologous DCs pulsed with tetanus toxoid (5 FU/ml) and stimulated with various stimuli at a stimulator to responder ratio of 1:10. After 7 days, T cells were restimulated with autologous DCs pulsed with the HLA-DR11.5-restricted helper peptide TTp30 and transduced with adenovector Ad-iCD40. Cells were stained with PE-anti-CD4 Ab (BD Biosciences), fixed and permeabilized using BD Cytofix/Cytoperm kit (BD Biosciences), then stained with hIFN-gamma mAb (eBioscience, San Diego, Calif.) and analyzed by flow cytometry. Supernatants were analyzed using human TH1/TH2 BD Cytometric Bead Array Flex Set on BD FACSArray Bioanalyzer (BD Biosciences).

Pam3 CSK4
IL12-p70 induced by TLR ligand in iCD40-DCs (human DCs): only low levels

Lipopolysaccharide [LPS]
Time of peak IL-12p70/p40 synthesis [1]: 8 h | IL12-p70 induced by TLR ligand in iCD40-DCs (human DCs): synergized with CD40 signaling | SOCS1 induction (human SOCS1): up-regulated SOCS1 expression | Protection against GM-CSF deprivation-mediated DC death (BMDCs [2]): protect against GM-CSF deprivation-mediated DC death

CC[C@H](C(=O)N1CCCC[C@H]1C(=O)O[C@H](CCc1ccc(OC)c(OC)c1)c1cccc(OCC(=O)NCC(CNC(=O)COc2cccc([C@@H](CCc3ccc(OC)c(OC)c3)OC(=O)[C@@H]3CCCCN3C(=O)[C@@H](CC)c3cc(OC)c(OC)c(OC)c3)c2)CN(C)C)c1)c1cc(OC)c(OC)c(OC)c1 [AP20187]
DC longevity (BMDCs [3]): even further enhanced this survival effect

FSL-1
IL12-p70 induced by TLR ligand in iCD40-DCs (human DCs): only low levels

monophosphoryl lipid A [MPL]
IFN-gamma production in CD4+ T cells [4]: not induced | IL12-p70 induced by TLR ligand in iCD40-DCs (human DCs): synergized with CD40 signaling

B1: CD40L: CD40 ligand (Alexis Biochemicals) (protein)
chain: GDQNPQIAAHVISEASSKTTSVLQWAEKGYYTMSNNLVTLENGKQLTVKRQGLYYIYAQVTFCSNREASSQAPFIASLCLKSPGRFERILLRAANTHSSAKPCGQQSIHLGGVFELQPGASVFVNVTDPSQVSHGTGFTSFGLLKL
Time of peak IL-12p70/p40 synthesis [1]: 8 h
